# Results: ChEMBL document CHEMBL1201862, “PubChem BioAssay data set” (2004)
#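 Growth conditions: 96-well plates. Treatment: test compound, 48 hours, 5 concentrations. Analysis: linear interpolation between bracketing concentrations; unreached endpoints set to highest concentration. Here, GI50 denotes the concentration required for 50% inhibition of growth.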 Activity calls are given as the source filed them. No stated cut-off is given here; in the data, active = GI50 up to about 1.1 µM and inactive = higher.
# Assays:
# Test in all cases: NCI tumour cell line growth inhibition, 48 h
# BT-549 = test system: BT-549
# CCRF-CEM = test system: CCRF-CEM
# HCT-116 = test system: HCT-116
# HOP-92 = test system: HOP-92
# Hs-578T = test system: Hs-578T
# IGROV-1 = test system: IGROV-1
# M14 = test system: M14
# MCF7 = test system: MCF7
# MDA-MB-435 = test system: MDA-MB-435
# MDA-N = test system: MDA-N
# NCI-H460 = test system: NCI-H460
# NCI/ADR-RES = test system: NCI/ADR-RES
# OVCAR-5 = test system: OVCAR-5
# PC-3 = test system: PC-3
# SF-268 = test system: SF-268
# SF-539 = test system: SF-539
# SN12C = test system: SN12C
# T47D = test system: T47D
# U-251 = test system: U-251
# UO-31 = test system: UO-31
SMILES,GI50 (BT-549),GI50 (CCRF-CEM),GI50 (HCT-116),GI50 (HOP-92),GI50 (Hs-578T),GI50 (IGROV-1),GI50 (M14),GI50 (MCF7),GI50 (MDA-MB-435),GI50 (MDA-N),GI50 (NCI-H460),GI50 (NCI/ADR-RES),GI50 (OVCAR-5),GI50 (PC-3),GI50 (SF-268),GI50 (SF-539),GI50 (SN12C),GI50 (T47D),GI50 (U-251),GI50 (UO-31)
NC(=O)NNCc1ccccc1,> 100 µM (inactive),> 100 µM (inactive),> 100 µM (inactive),51.5 µM (inactive),> 100 µM (inactive),> 100 µM (inactive),> 100 µM (inactive),> 100 µM (inactive),> 100 µM (inactive),> 100 µM (inactive),> 100 µM (inactive),> 100 µM (inactive),> 100 µM (inactive),> 100 µM (inactive),> 100 µM (inactive),> 100 µM (inactive),> 100 µM (inactive),> 100 µM (inactive),> 100 µM (inactive),> 100 µM (inactive)
C=C(C)CC1(O)C(=O)C(OCC)=C1OCC (stereo not given),> 100 µM (inactive),> 100 µM (inactive),> 100 µM (inactive),48.6 µM (inactive),> 100 µM (inactive),> 100 µM (inactive),> 100 µM (inactive),> 100 µM (inactive),> 100 µM (inactive),> 100 µM (inactive),> 100 µM (inactive),> 100 µM (inactive),> 100 µM (inactive),> 100 µM (inactive),> 100 µM (inactive),> 100 µM (inactive),> 100 µM (inactive),> 100 µM (inactive),> 100 µM (inactive),> 100 µM (inactive)
COC(=O)Nc1nc2cc(NS(=O)(=O)c3ccc(Cl)cc3)ccc2[nH]1,13.4 µM (inactive),4.35 µM (inactive),2.45 µM (inactive),1.84 µM (inactive),1.99 µM (inactive),2.59 µM (inactive),3.77 µM (inactive),4.08 µM (inactive),2.17 µM (inactive),2.18 µM (inactive),5.98 µM (inactive),8.59 µM (inactive),17.9 µM (inactive),8.55 µM (inactive),10.4 µM (inactive),7.21 µM (inactive),16.3 µM (inactive),19.1 µM (inactive),12.2 µM (inactive),11.7 µM (inactive)
COC1(C)CP(=O)(OC(C)C)CC(C)=C1Cl (stereo not given),12.7 µM (inactive),3.66 µM (inactive),6.37 µM (inactive),11.2 µM (inactive),9.84 µM (inactive),11.6 µM (inactive),13.7 µM (inactive),4.67 µM (inactive),13.6 µM (inactive),13.2 µM (inactive),18.3 µM (inactive),17.8 µM (inactive),18.8 µM (inactive),25.5 µM (inactive),32.2 µM (inactive),10.7 µM (inactive),15.2 µM (inactive),13.6 µM (inactive),10.6 µM (inactive),17.8 µM (inactive)
CCOC1CC(=O)c2c(Br)sc(Br)c21 (stereo not given),24.4 µM (inactive),7.31 µM (inactive),21.2 µM (inactive),17.5 µM (inactive),37.8 µM (inactive),15.5 µM (inactive),17.1 µM (inactive),21.2 µM (inactive),17.5 µM (inactive),22.3 µM (inactive),20.7 µM (inactive),37.6 µM (inactive),23.7 µM (inactive),20.8 µM (inactive),28.6 µM (inactive),26.4 µM (inactive),24.9 µM (inactive),19.9 µM (inactive),16.9 µM (inactive),18.2 µM (inactive)
CCCCCCCCCCCCCCCCCCNc1ccn(C2OC(COP(=O)(O)OCC3OC(n4cc(C)c(=O)[nH]c4=O)CC3N=[N+]=[N-])C(O)C2O)c(=O)n1 (stereo not given),19.7 µM (inactive),15.5 µM (inactive),39.7 µM (inactive),59.6 µM (inactive),23 µM (inactive),19.1 µM (inactive),20.2 µM (inactive),37 µM (inactive),23.8 µM (inactive),43.7 µM (inactive),21 µM (inactive),21 µM (inactive),16.7 µM (inactive),8.81 µM (inactive),19.2 µM (inactive),17.8 µM (inactive),21.7 µM (inactive),34.8 µM (inactive),16.7 µM (inactive),21 µM (inactive)
CC(=O)N(C(C)=O)n1nc2c(n1)C(=O)c1ccccc1C2=O,> 100 µM (inactive),> 100 µM (inactive),> 100 µM (inactive),> 100 µM (inactive),> 100 µM (inactive),> 100 µM (inactive),> 100 µM (inactive),> 100 µM (inactive),> 100 µM (inactive),> 100 µM (inactive),> 100 µM (inactive),> 100 µM (inactive),> 100 µM (inactive),> 100 µM (inactive),> 100 µM (inactive),> 100 µM (inactive),> 100 µM (inactive),> 100 µM (inactive),> 100 µM (inactive),> 100 µM (inactive)
CN(CCC(=O)O)S(=O)(=O)c1ccccc1,> 100 µM (inactive),> 100 µM (inactive),> 100 µM (inactive),> 100 µM (inactive),> 100 µM (inactive),> 100 µM (inactive),> 100 µM (inactive),> 100 µM (inactive),> 100 µM (inactive),> 100 µM (inactive),> 100 µM (inactive),> 100 µM (inactive),> 100 µM (inactive),> 100 µM (inactive),> 100 µM (inactive),> 100 µM (inactive),> 100 µM (inactive),> 100 µM (inactive),> 100 µM (inactive),> 100 µM (inactive)
C=C1c2nc3ccccc3n2C=C(c2ccccc2)N1c1ccc([N+](=O)[O-])cc1,9.16 µM (inactive),9.46 µM (inactive),2.52 µM (inactive),3.9 µM (inactive),3.04 µM (inactive),4.84 µM (inactive),8.57 µM (inactive),3.61 µM (inactive),5.61 µM (inactive),7.6 µM (inactive),1.72 µM (inactive),7.18 µM (inactive),10.7 µM (inactive),15.3 µM (inactive),8.11 µM (inactive),1.05 µM (active),7.89 µM (inactive),6.25 µM (inactive),5.33 µM (inactive),3.3 µM (inactive)
O=C(c1ccco1)C1CC(c2ccc3ccccc3c2O)=NN1c1ccc([N+](=O)[O-])cc1[N+](=O)[O-] (stereo not given),29.7 µM (inactive),2.29 µM (inactive),23.1 µM (inactive),12.4 µM (inactive),15.7 µM (inactive),14 µM (inactive),22.9 µM (inactive),12.8 µM (inactive),28.9 µM (inactive),28.6 µM (inactive),10.5 µM (inactive),21.1 µM (inactive),16 µM (inactive),16.4 µM (inactive),19.4 µM (inactive),28 µM (inactive),32.8 µM (inactive),31.9 µM (inactive),28.4 µM (inactive),16.6 µM (inactive)
Cn1c2ccccc2c2c3c(c4c5ccccc5n(C5OC(CO)C(O)C(O)C5O)c4c21)C(=O)OC3=O (stereo not given),> 100 µM (inactive),> 100 µM (inactive),> 100 µM (inactive),> 100 µM (inactive),> 100 µM (inactive),> 100 µM (inactive),> 100 µM (inactive),> 100 µM (inactive),> 100 µM (inactive),> 100 µM (inactive),> 100 µM (inactive),> 100 µM (inactive),> 100 µM (inactive),> 100 µM (inactive),> 100 µM (inactive),> 100 µM (inactive),> 100 µM (inactive),52.2 µM (inactive),> 100 µM (inactive),> 100 µM (inactive)
CCCCC1(N=[N+]=[N-])C(=O)C2C=CC=C3c4ccccc4N(C1=O)C32 (stereo not given),24.5 µM (inactive),18.5 µM (inactive),18.1 µM (inactive),> 10 µM (inactive),12.3 µM (inactive),11.3 µM (inactive),19.3 µM (inactive),17.1 µM (inactive),19.1 µM (inactive),15.7 µM (inactive),17.2 µM (inactive),17.7 µM (inactive),19.8 µM (inactive),18.9 µM (inactive),19.9 µM (inactive),20 µM (inactive),30.1 µM (inactive),14.1 µM (inactive),18.7 µM (inactive),18.8 µM (inactive)
O=c1c2ccccc2[nH]n1Cc1ccccc1,> 100 µM (inactive),> 100 µM (inactive),> 100 µM (inactive),> 100 µM (inactive),> 100 µM (inactive),> 100 µM (inactive),> 100 µM (inactive),> 100 µM (inactive),> 100 µM (inactive),> 100 µM (inactive),> 100 µM (inactive),> 100 µM (inactive),> 100 µM (inactive),> 100 µM (inactive),> 100 µM (inactive),> 100 µM (inactive),> 100 µM (inactive),> 100 µM (inactive),> 100 µM (inactive),> 100 µM (inactive)
Nc1ccnc2c1ncn2[C@H]1C[C@H](O)[C@@H](CO)O1,> 100 µM (inactive),> 100 µM (inactive),> 100 µM (inactive),> 100 µM (inactive),> 100 µM (inactive),> 100 µM (inactive),> 100 µM (inactive),> 100 µM (inactive),> 100 µM (inactive),> 100 µM (inactive),> 100 µM (inactive),> 100 µM (inactive),> 100 µM (inactive),> 100 µM (inactive),> 100 µM (inactive),> 100 µM (inactive),> 100 µM (inactive),> 100 µM (inactive),> 100 µM (inactive),> 100 µM (inactive)
